Experimental data as given in patent publication US20110105389A1 (priority 2009, published 2011).
Where two headings read alike, the source gives them in different places.

Legend:
[1] = target: T1, human ghrelin receptor (GRLN, growth hormone secretagogue receptor, hGHS-R1a) (Homo sapiens, UniProt Q92847); experiment: Competitive radioligand binding assay (ghrelin receptor), Method B1
T1 construct: purchased PerkinElmer BioSignal #RBHGHSM, lot#1887; host or cells: HEK-293 cells, stably transfected (membranes)
T1 sequence (Q92847 whole entry): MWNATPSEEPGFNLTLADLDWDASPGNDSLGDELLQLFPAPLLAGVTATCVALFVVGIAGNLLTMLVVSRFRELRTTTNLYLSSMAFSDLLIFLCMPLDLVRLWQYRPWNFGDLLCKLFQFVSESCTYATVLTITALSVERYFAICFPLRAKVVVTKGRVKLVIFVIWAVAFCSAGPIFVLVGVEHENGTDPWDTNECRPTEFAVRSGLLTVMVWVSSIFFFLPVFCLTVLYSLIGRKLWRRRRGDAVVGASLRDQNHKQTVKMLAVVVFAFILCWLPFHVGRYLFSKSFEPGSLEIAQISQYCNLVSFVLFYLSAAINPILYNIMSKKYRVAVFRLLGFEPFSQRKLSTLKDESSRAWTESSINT
Procedure, shortened: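 Filtration competition format: bound radioactivity counted after GF/C harvesting and cold 50 mM Tris-HCl washes. Incubation lasted 30 min at room temperature in Hepes pH 7.4 buffer with Ca2+, Mg2+, EDTA and 0.4% BSA (DMSO ≤0.1% final); values from variable-slope non-linear regression.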

[2] = target: T2, GHS-R1a receptor (HEK293 cells expressing GHS-R1a receptor) (Homo sapiens, UniProt Q92847); experiment: Fluorescence functional assay (ghrelin receptor), Method B2, agonist and antagonist mode; type: cell-based; conditions: functional activity as an antagonist at the ghrelin receptor, Methods B2 and B3
T2 construct: host or cells: HEK293
T2 sequence (Q92847 whole entry): as above
Procedure, shortened: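 Calcium flux read by ImageTrak epifluorescence in HEK293 cells stably expressing GHS-R1a, loaded 1 h at 37 °C with Calcium-3 dye; buffer HBSS/20 mM Hepes, pH 7.4, with probenecid and BSA. Agonists injected after 10 s baseline, read 50 s more; antagonists 3 min. Sigmoidal fits gave EC50 or IC50.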

CYP2D6 [3] = target: T3, CYP2D6 (Homo sapiens, UniProt P10635); experiment: Cytochrome P450 inhibition, Method B6; conditions: read-out: IC50 CYP 2D6; Table 4b; dextromethorphan used as substrate
T3 sequence (P10635 whole entry): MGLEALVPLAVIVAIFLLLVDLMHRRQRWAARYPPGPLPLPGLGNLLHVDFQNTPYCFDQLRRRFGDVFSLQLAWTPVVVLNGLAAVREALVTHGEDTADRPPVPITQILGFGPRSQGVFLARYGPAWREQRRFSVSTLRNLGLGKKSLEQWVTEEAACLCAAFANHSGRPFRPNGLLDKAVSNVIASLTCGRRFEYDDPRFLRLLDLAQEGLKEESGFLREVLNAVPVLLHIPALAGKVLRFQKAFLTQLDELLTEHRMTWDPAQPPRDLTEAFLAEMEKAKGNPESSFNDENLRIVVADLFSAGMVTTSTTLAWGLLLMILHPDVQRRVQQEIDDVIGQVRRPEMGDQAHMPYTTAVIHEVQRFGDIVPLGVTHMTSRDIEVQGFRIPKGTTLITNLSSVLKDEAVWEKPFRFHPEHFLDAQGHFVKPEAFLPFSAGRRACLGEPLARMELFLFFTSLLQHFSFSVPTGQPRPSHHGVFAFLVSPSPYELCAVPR

CYP3A4 [4] = target: T4, CYP3A4 (Homo sapiens, UniProt P08684); experiment: Cytochrome P450 inhibition, Method B6 (two substrates); conditions: read-out: IC50 CYP 3A4; Table 4b; midazolam used as substrate
T4 sequence (P08684 whole entry): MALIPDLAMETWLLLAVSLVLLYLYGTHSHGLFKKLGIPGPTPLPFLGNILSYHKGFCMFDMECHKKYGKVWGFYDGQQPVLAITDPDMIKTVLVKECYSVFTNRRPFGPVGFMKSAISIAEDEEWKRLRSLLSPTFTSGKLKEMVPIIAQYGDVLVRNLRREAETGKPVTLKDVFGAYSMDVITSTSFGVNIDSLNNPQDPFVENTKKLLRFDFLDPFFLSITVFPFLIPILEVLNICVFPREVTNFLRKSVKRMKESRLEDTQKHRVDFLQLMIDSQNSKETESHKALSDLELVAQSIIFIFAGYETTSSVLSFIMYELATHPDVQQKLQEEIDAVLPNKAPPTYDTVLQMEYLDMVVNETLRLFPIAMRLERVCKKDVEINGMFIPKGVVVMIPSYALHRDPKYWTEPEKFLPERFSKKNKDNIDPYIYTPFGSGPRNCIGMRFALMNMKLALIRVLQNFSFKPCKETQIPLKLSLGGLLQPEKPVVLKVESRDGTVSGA

[5] = Metabolic stability in human liver microsomes, Method B8; type: in vitro ADME; conditions: human liver microsomes 0.8 mg/mL, 5 μM compound, 37° C.
Procedure, shortened: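 Pooled human liver microsomes (15 mixed-sex donors) at 0.8 mg/mL in 100 mM potassium phosphate, pH 7.4, with 1.5 mM NADPH and 8 mM MgCl2. Compounds tested in duplicate at a single 5 μM (0.05% DMSO), incubated at 37° C.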

[6] = system: rat stomach fundus strips; experiment: Ex-vivo potency evaluation on the rat stomach fundus (inhibition of ghrelin-induced contractility), Method B10; conditions: EFS
Description: B10. Ex-vivo Potency Evaluation on the Rat Stomach Fundus
Fundus strips (approximately 0.4×1 cm) were cut from the stomach of adult male Wistar rats parallel to the circular muscle fibers. They were placed between two platinum ring electrodes, 1 cm apart (Radnoti, ADlnstruments, USA) in 10 ml tissue baths containing Krebs solution bubbled with 5% CO2 in O2 and maintained at 37° C. Tissues were suspended under 1.5 g resting tension. Changes of tension were measured isometrically with force transducers and recorded with a PowerLab 8/30 data acquisition system (ADlnstruments, USA). Tissues were allowed to equilibrate for 60 min during which time bath solutions were changed every 15 min.
EFS was achieved by applying 0.5 ms pulses, 5 Hz frequency, at a maximally effective voltage of 70 V. EFS was applied for 30 sec at 3 min intervals for a 30 min initial period. This initial period was separated by a […] interval with wash out of the bath solution. Then, a second period of stimulation was started. […] Responses to the agents were measured and expressed as % of the mean of three or four pre-drug responses to EFS. All compounds were dissolved at 1 mM in distilled water or MeOH, as stock solutions.
IC50 values for the inhibition of ghrelin-induced contractility by representative compounds of the invention are presented in Table 7.

CYP2D6 [7] = target: T3, CYP2D6; experiment: biochemical
CYP3A4 [8] = target: T4, CYP3A4; experiment: biochemical
[9] = target: T5, ghrelin receptor (HEK-GHSR1 stable cells) (Homo sapiens, UniProt Q92847); experiment: Ghrelin receptor inverse agonist assay (HTRF IP-one), Method B4; type: cell-based; conditions: inverse agonist at the ghrelin receptor, Method B4
T5 construct: expressed in transfected cells
T5 sequence (Q92847 whole entry): as the sequence (Q92847 whole entry) above
Procedure, shortened: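 HEK cells stably expressing GHSR1, seeded at 100 000 cells/well overnight, exposed to compound for 30 min at 37° C. Cells then lysed and IP1 accumulation measured by HTRF (d2 plus anti-IP1 cryptate, 1 h at room temp). Wells lacking d2 served as negative control.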

[10] = Plasma protein binding (equilibrium dialysis), Method B5; type: in vitro ADME; conditions: 60 min at 37° C., typically 10 μM
Description: B5. Plasma Protein Binding
The pharmacokinetic and pharmacodynamic properties of drugs are largely a function of the reversible binding of drugs to plasma or serum proteins such as albumin and α1-acid glycoprotein. In general, only unbound drug is available for diffusion or transport across cell membranes, and for interaction at the pharmacological target. On the other hand, drugs with low plasma protein binding generally have large volumes of distribution and rapid clearance since only unbound drug is available for glomerular filtration and, in some cases, hepatic clearance. Thus, the extent of plasma protein binding can influence efficacy, distribution and elimination. The ideal range for plasma protein binding is in the range of 87-98% for most drug products.
Protein binding studies were performed using human plasma. Briefly, 96-well microplates were used to incubate various concentrations of the test article for 60 min at 37° C. A concentration of 10 μM was a typical selection to be employed in this study. Bound and unbound fractions are separated by equilibrium dialysis, where the concentration remaining in the unbound fraction is quantified by LC-MS or LC-MS-MS analysis. […].

[11] = Ghrelin receptor binding activity, Method B1

SMILES	Antagonist Activity [2]	IC50 (CYP2D6 [3]) [nM]	IC50 (CYP3A4 [4]) [nM]	HLM, metabolic stability in human liver microsomes [5] [μL/min/mg protein]	other results
CCC(C)[C@@H]1NCCOc2ccccc2/C=C/CNC(=O)[C@@H](Cc2ccccc2)NC(=O)[C@H](C(C)O)N(C)C1=O (stereo partly shown) [Compound 1318]	C (C = 10-100 nM)	> 5000	3900	–	IC50 [1, 11]: 10 to 100 nM; Ki [1, 11]: 1 to 10 nM
CC(C)[C@@H]1NCCOc2ccccc2/C=C/CNC(=O)[C@@H](Cc2ccccc2)NC(=O)[C@H](C(C)O)N(C)C1=O (stereo partly shown) [Compound 1319]	–	–	–	26.5	IC50 [1]: 10 to 100 nM; Ki [1]: 1 to 10 nM; IC50 [6]: 72 nM; IC50 (CYP2D6 [7]): 19100 nM; IC50 (CYP3A4 [8]): 8000 nM
COC(C)[C@@H]1NCCOc2ccccc2/C=C/CNC(=O)[C@@H](Cc2ccccc2)NC(=O)[C@H](C(C)O)N(C)C1=O (stereo partly shown) [Compound 1324]	D (D = 100-500 nM)	> 5000	> 5000	–	Ki [1, 11]: 10 to 100 nM
CCC(C)[C@@H]1NCCOc2ccccc2/C=C/CNC(=O)[C@@H](Cc2ccccc2F)NC(=O)[C@H](C(C)O)N(C)C1=O (stereo partly shown) [Compound 1325]	C (C = 10-100 nM)	> 5000	> 3100	–	IC50 [1, 11]: 10 to 100 nM; Ki [1, 11]: 10 to 100 nM; IC50 [6]: 29 nM
CCC(C)[C@@H]1NCCOc2ccccc2/C=C/CNC(=O)[C@@H](Cc2cccc(F)c2)NC(=O)[C@H](C(C)O)N(C)C1=O (stereo partly shown) [Compound 1326]	C (C = 10-100 nM)	–	–	–	IC50 [1]: 10 to 100 nM; Ki [1]: 1 to 10 nM; IC50 (CYP2D6 [7]): > 5000 nM; IC50 (CYP3A4 [8]): 2200 nM
CCC(C)[C@@H]1NCCOc2ccccc2/C=C/CNC(=O)[C@@H](Cc2ccc(C(F)(F)F)cc2)NC(=O)[C@H](C(C)O)N(C)C1=O (stereo partly shown) [Compound 1327]	–	–	–	–	IC50 [1]: 10 to 100 nM; Ki [1]: 1 to 10 nM; IC50 (CYP2D6 [7]): > 25000 nM; IC50 (CYP3A4 [8]): > 17700 nM
CCC(C)[C@@H]1NCCOc2ccccc2C[C@H](O)CNC(=O)[C@@H](Cc2ccccc2)NC(=O)[C@H](C(C)O)N(C)C1=O (stereo partly shown) [Compound 1340]	–	–	–	–	IC50 [1]: 10 to 100 nM; Ki [1]: 10 to 100 nM; IC50 (CYP2D6 [7]): 13300 nM; IC50 (CYP3A4 [8]): 17200 nM
CC(C)[C@@H]1NCCOc2ccccc2/C=C/CNC(=O)[C@@H](Cc2cccc(O)c2)NC(=O)[C@H](C(C)O)N(C)C1=O (stereo partly shown) [Compound 1350]	C (C = 10-100 nM)	7900	5700	–	–
CCC(C)[C@@H]1NCCOc2ccccc2CC[C@@H](C)NC(=O)[C@@H](Cc2ccccc2)NC(=O)[C@H](C(C)O)N(C)C1=O (stereo partly shown) [Compound 1358]	C (C = 10-100 nM)	> 20000	1600	–	–
CC(C)[C@@H]1NCCOc2ccccc2CC[C@@H](C)NC(=O)[C@@H](Cc2c[nH]c3ccccc23)NC(=O)[C@H](C(C)O)N(C)C1=O (stereo partly shown) [Compound 1375]	B (B = 1-10 nM)	> 20000	8800	58.4	–
CC(C)[C@@H]1NCCOc2ccccc2CC[C@@H](C)NC(=O)[C@@H]([C@@H](C)c2ccccc2)NC(=O)[C@H](C(C)O)N(C)C1=O (stereo partly shown) [Compound 1390]	C (C = 10-100 nM)	–	–	53	IC50 (CYP2D6 [7]): > 20000 nM; IC50 (CYP3A4 [8]): 6900 nM
CC(C)[C@@H]1NCCOc2cc(F)ccc2CC[C@@H](C)NC(=O)[C@@H](Cc2ccccc2)NC(=O)[C@H](C(C)O)N(C)C1=O (stereo partly shown) [Compound 1391]	A (A <1 nM)	–	–	16.6	IC50 [6]: 65 nM
CC(C)[C@@H]1NCCOc2cc(F)ccc2CC[C@@H](C)NC(=O)[C@@H](Cc2cccc(F)c2)NC(=O)[C@H](C(C)O)N(C)C1=O (stereo partly shown) [Compound 1392]	A (A <1 nM)	–	–	23.6	IC50 [6]: 4 nM
CC(C)[C@@H]1NCCOc2ccccc2CC[C@@H](C)NC(=O)[C@@H](Cc2ccsc2)NC(=O)[C@H](C(C)O)N(C)C1=O (stereo partly shown) [Compound 1399]	B (B = 1-10 nM)	> 20000	2300	–	–
CC(C)[C@@H]1NCCOc2ccccc2CC[C@@H](C)NC(=O)[C@@H](Cc2cccc(Cl)c2)NC(=O)[C@H](C(C)O)N(C)C1=O (stereo partly shown) [Compound 1400]	A (A <1 nM)	–	–	54.2	IC50 [6]: 360 nM
CC(C)[C@@H]1NCCOc2ccccc2CC[C@@H](C)NC(=O)[C@@H](Cc2ccc3ccccc3n2)NC(=O)[C@H](C(C)O)N(C)C1=O (stereo partly shown) [Compound 1413]	B (B = 1-10 nM)	14700	1000	–	–
COc1ccccc1C[C@H]1NC(=O)[C@H](C(C)O)N(C)C(=O)[C@H](C(C)C)NCCOc2ccccc2CC[C@@H](C)NC1=O (stereo partly shown) [Compound 1418]	B (B = 1-10 nM)	14500	900	32.2	–
CC(C)[C@@H]1NCCOc2ccc(F)cc2CC[C@@H](C)NC(=O)[C@@H](Cc2c[nH]c3ccccc23)NC(=O)[C@H](C(C)O)N(C)C1=O (stereo partly shown) [Compound 1428]	–	9100	800	–	–
CC(C)[C@@H]1NCCOc2cccc(F)c2CC[C@@H](C)NC(=O)[C@@H](Cc2c[nH]c3ccccc23)NC(=O)[C@H](C(C)O)N(C)C1=O (stereo partly shown) [Compound 1429]	–	> 20000	700	–	–
CC(C)[C@@H]1NCCOc2ccccc2/C=C/CNC(=O)[C@@H](Cc2cccc(Cl)c2)NC(=O)[C@H](C(C)O)N(C)C1=O (stereo partly shown) [Compound 1432]	B (B = 1-10 nM)	5200	1200	25.1	–
CC(C)[C@@H]1NCCOc2ccccc2C#C[C@@H](C)NC(=O)[C@@H](Cc2ccc(F)cc2)NC(=O)[C@H](C(C)O)N(C)C1=O (stereo partly shown) [Compound 1711]	–	–	–	–	IC50 [1, 11]: 1 to 10 nM; IC50 [9]: 10 to 50 nM; Binding (%), Human Plasma Protein Binding [10]: 97.4%
CC(O)[C@H]1C(=O)N[C@H](Cc2ccc(Cl)cc2)C(=O)NC/C=C/c2ccccc2OCCN[C@@H](C2(C)CC2)C(=O)N1C (stereo partly shown) [Compound 1729]	B (B = 1-10 nM)	–	1900	54.8	IC50 [1, 11]: 1 to 10 nM; IC50 [9]: 50 to 100 nM
CCC(C)C1NCCOc2ccccc2C=CCNC(=O)C(Cc2ccc(Cl)cc2)NC(=O)C(C(C)O)N(C)C1=O (stereo not shown) [Compound 1730]	–	–	1600	61.9	IC50 [1, 11]: 1 to 10 nM; IC50 [9]: 100 to 500 nM
CC[C@@H]1NCCOc2ccccc2/C=C/CNC(=O)[C@@H](Cc2ccc(Cl)cc2)NC(=O)[C@H](C(C)O)N(C)C1=O (stereo partly shown) [Compound 1732]	–	–	2900	52.2	IC50 [1, 11]: 10 to 100 nM; IC50 [9]: 100 to 500 nM
